≈ marks a conversion by molar mass, not a printed value.

The text below walks through data of paper PMC10223356, “Tetrasubstituted Pyrrole Derivative Mimetics of Protein–Protein Interaction Hot-Spot Residues: A Promising Class of Anticancer Agents Targeting Melanoma Cells” (Molecules, 2023).

A short description of series [1]: Solubility assay in PBS by UV light scattering (precipitation point). The series is classed as physicochemical. The note with it: for solubility at 1 min: PBS (phosphate-buffered saline), aqueous buffer, kinetic from dmso stock, PBS solution pH = 7.4, 37 °C, mean ± SEM (n = 3). As for the experimental part: The solubility of all compounds was evaluated in a PBS solution (phosphate-buffered saline; Sigma-Aldrich, Merck KGaA, Darmstadt, Germany, pH = 7.4) by means of UV spectroscopy.
For each compound, the precipitation point was quantified measuring the increasing of the UV absorption of PBS in the range of 600–800 nm after successive additions of aliquots of a DMSO solution at specific concentration. Because of the absence of bands in the selected UV region, the increase in absorption is due to light scattering caused by the formation of particulate in the PBS. UV absorption data were graphically reported vs. μL of the added DMSO solution (x-axis), and the precipitation point was identified as the intersect point of the bilinear fitted curve. The x coordinate of the intersect point corresponded to the microlitres of DMSO added to PBS (1.4 mL) when the precipitation occurred, from which the concentration of the molecule in PBS at the precipitation point is readily calculated.
The solubility of each molecule in PBS was quantified measuring the UV scattering in the range of 600–800 nm (JASCO UV-530 spectrophotometer, equipped with ETC-505 T temperature controller). DMSO solutions of 1, 9a, 9b, 9c, 9d, 9e, 9f, ±10b, and nutlin-3a were used at a final concentration of 2.6 mM, whereas those of 9g, 9h, and 9i were used at 1.0 mM. A total of 1400 µL of degassed PBS was placed in a quartz cuvette (o.l. 0.5 cm), equilibrated 5 min at 37 °C, and then titrated by 7–10 successive additions of 0.5 µL or 0.3 µL from the DMSO solution. Each titration was performed without removing the cuvette from the UV cell and, after each addition, the solution was equilibrated 1 min a 37 °C under gently stirring before the acquisition of the UV data. For each molecule, the solubility was expressed as the mean ± SEM (n = 3).

Series [2] has as its system human colorectal carcinoma HCT-116 cells. Description: Cell survival index (MTT + cell count) bioscreen, HCT-116. The format is cell-based. The note with it: HCT-116, 48 h, human colon cancer cell line, 48 h of incubation, mean ± SEM (n = 30). On the procedure:
(§1) Cell growth inhibition activity of compounds 1, 9a–i, 10a,b, and the positive control nutlin-3a was evaluated following 48 h of incubation with increasing concentrations of the compounds (from 1.5 to 25 µM) in human cancer (A375 and HCT-116) and healthy (L6) cell lines. […] The evaluation of the “cell survival index” show a typical concentration-dependent sigmoid trend, achieving IC50 values in the low micromolar range (Figure S2).
(§2) Human epithelial melanoma A375 cells, human colorectal carcinoma HCT-116 cells, and normal rat L6 myoblast were grown in DMEM (Invitrogen, Paisley, UK) supplemented with 10% fetal bovine serum (FBS, Cambrex, Verviers, Belgium), L-glutamine (2 mM, Sigma, Milan, Italy), penicillin (100 units/mL, Sigma), and streptomycin (100 μg/mL, Sigma) and cultured in a humidified 5% carbon dioxide atmosphere at 37 °C, according to ATCC recommendations. A375 and HCT-116 were used as preclinical human cancer models in vitro, while rat L6 were used as control healthy cells.
(§3) The antiproliferative activity of 1, 9a–i, and 10a,b was investigated through the estimation of a “cell survival index”, arising from the combination of cell viability evaluation with cell counting, as previously reported. The cell survival index is calculated as the arithmetic mean between the percentage values derived from the MTT assay and the automated cell count. Cells were inoculated in 96-microwell culture plates at a density of 10^4 cells/well and allowed to grow for 24 h. The medium was then replaced with fresh medium and cells were treated for an additional 48 h with a range of concentrations (from 1.5 to 25 μM) of 1, 9a–i, and 10a,b. Using the same experimental procedure, cell cultures were also incubated with DMSO as negative controls (vehicle), as well as with cisplatin (cDDP) and nutlin-3a as positive controls for cytotoxic and antiproliferative effects, respectively. Cell viability was evaluated using the MTT assay procedure. Cell number was determined by TC20 automated cell counter (Bio-Rad, Milan, Italy), providing an accurate and reproducible total count of cells and a live/dead ratio in one step by a specific dye (trypan blue) exclusion assay. The calculation of the concentration required to inhibit the net increase in the cell number and viability by 50% (IC50) is based on plots of data (n = 6 for each experiment) and repeated five times (total n = 30). IC50 values were calculated from a dose–response curve by nonlinear regression using a curve-fitting program, GraphPad Prism 5.0, and are expressed as mean values ± SEM (n = 30) of five independent experiments.

Series [3] concerns normal rat L6 myoblast. Description: Cell survival index (MTT + cell count) bioscreen, L6. The series is classed as cell-based. The note with it: healthy rat myoblast cell line, 48 h of incubation, mean ± SEM (n = 30), read-out: L6 IC50. As for the experimental part:
as §1, §2, §3

Series [4] has as its system human epithelial melanoma A375 cells. Description: Cell survival index (MTT + cell count) bioscreen, A375. The series is classed as cell-based. The note with it: for IC50: A-375, human melanoma cell line, 48 h of incubation, cell survival index, mean ± SEM (n = 30); for SI (selectivity index): SI = IC50 L6/IC50 A375. As for the experimental part:
as §1, §2, §3

Setting [5] is: DMSO solution 2.6 mM added to 1400 µL PBS.
Setting [6] is: DMSO solution 1.0 mM added to 1400 µL PBS, Abs 640 nm.

For orientation: solubility means the dissolved amount per volume that the medium holds. Low values mean a poorly soluble substance, high ones a readily soluble substance. One may read the IC50 as the point on the concentration scale where inhibition reaches its midpoint. In the case of `Cc1ccc(Cn2c(C(=O)NCc3cccc(Cl)c3)cc(C(O)c3ccccc3)c2C)cc1` (racemic) [(±)10b, (±)N-(3-chlorobenzyl)-4-(hydroxy(phenyl)methyl)-5-methyl-1-(4-methylbenzyl)-1H-pyrrole-2-carboxamide], the “Volume of DMSO solution added to PBS at the precipitation point” value (from here on “Volume of DMSO solution added to PBS”) in series [1] (setting [5]) is 3,6 µL. This compound came in with a solubility at 1 min in series [1] of 6.7 ± 0.6 µM (≈ 3.08 µg/mL). In addition, in series [2], the IC50 stood at 25 ± 5 µM. Moreover, in series [3], the CC50 came to 54 ± 6 µM. In series [4], the IC50 is 15 ± 5 µM and the “SI (selectivity index)” value was 3.6.

`Cc1c(C(=O)c2ccccc2)cc(C(=O)NCc2cccc(Cl)c2)n1Cc1ccc(Cl)cc1` [compound 9a, 4-Benzoyl-N-(3-chlorobenzyl)-1-(4-chlorobenzyl)-5-methyl-1H-pyrrole-2-carboxamide]: in series [1] (setting [5]), the “Volume of DMSO solution added to PBS” value was 2,14 µL. In series [1], the solubility at 1 min was 3.9 ± 0.1 µM (≈ 1.86 µg/mL). Also, the IC50 in series [2] turned out to be 36.4 ± 8 µM. In addition, the CC50 in series [3] was determined as 48 ± 5 µM. Besides, in series [4], the IC50 is 18 ± 4 µM and the “SI (selectivity index)” value is 2.7.

`COc1ccc(Cn2c(C(=O)NCc3cccc(Cl)c3)cc(C(=O)c3ccccc3)c2C)cc1` [compound 9b, 4-Benzoyl-N-(3-chlorobenzyl)-1-(4-methoxybenzyl)-5-methyl-1H-pyrrole-2-carboxamide]: the “Volume of DMSO solution added to PBS” value in series [1] (setting [5]) was 1,7 µL. Moreover, the solubility at 1 min in series [1] amounted to 3.1 ± 0.2 µM (≈ 1.47 µg/mL). Moreover, the IC50 in series [2] came to 46 ± 18 µM; in series [4], 24 ± 14 µM. Further, the CC50 in series [3] stood at 40 ± 5 µM. Also, in series [4], the “SI (selectivity index)” value turned out to be 1.7.

Take `Cc1ccc(Cn2c(C(=O)NCc3ccc(Cl)cc3)cc(C(=O)c3ccccc3)c2C)cc1` [compound 9d, 4-Benzoyl-N-(4-chlorobenzyl)-5-methyl-1-(4-methylbenzyl)-1H-pyrrole-2-carboxamide]: the “Volume of DMSO solution added to PBS” value in series [1] (setting [5]) is on record as 1,67 µL. The compound also registered a solubility at 1 min in series [1] of 3.1 ± 0.2 µM (≈ 1.42 µg/mL). For the same compound, the IC50 in series [2] came out at 35.4 ± 6 µM. For the same compound, the CC50 in series [3] was found to be 25 ± 6 µM. Besides, in series [4], the IC50 worked out at 15 ± 5 µM and the “SI (selectivity index)” value is recorded as 1.7.

Take `Cc1c(C(=O)c2ccccc2)cc(C(=O)NCc2ccc(Cl)cc2)n1Cc1ccc(Cl)cc1` [compound 9e, 4-Benzoyl-N,1-bis(4-chlorobenzyl)-5-methyl-1H-pyrrole-2-carboxamide]: the “Volume of DMSO solution added to PBS” value in series [1] (setting [5]) is reported as 1,93 µL. In series [1], this compound had a solubility at 1 min of 3.5 ± 0.3 µM (≈ 1.67 µg/mL). The IC50 in series [2] is 34.6 ± 6 µM. Also, the CC50 in series [3] was determined as 38 ± 2 µM. For the same compound, in series [4], the IC50 is 23 ± 6 µM and the “SI (selectivity index)” value is 1.6.

As for `Cc1c(C(=O)c2ccccc2)cc(C(=O)NCc2cccc(C(F)(F)F)c2)n1Cc1ccccc1` [compound 9f, 4-Benzoyl-1-benzyl-5-methyl-N-(3-(trifluoromethyl)-benzyl)-1H-pyrrole-2-carboxamide], in series [1] (setting [5]), the “Volume of DMSO solution added to PBS” value is listed as 1,41 µL. This compound showed a solubility at 1 min in series [1] of 2.6 ± 0.1 µM (≈ 1.24 µg/mL). For the same compound, the IC50 in series [2] is 28.4 ± 7 µM. In addition, in series [3], the CC50 was 35 ± 7 µM. Also, in series [4], the IC50 amounted to 27 ± 8 µM and the “SI (selectivity index)” value was determined as 1.3.

Regarding `CC(=O)c1cc(C(=O)NCc2cccc(Br)c2)n(Cc2ccc(C)cc2)c1-c1ccccc1` [compound 9g, 4-acetyl-N-(3-bromobenzyl)-1-(4-methylbenzyl)-5-phenyl-1H-pyrrole-2-carboxamide], the “Volume of DMSO solution added to PBS” value in series [1] (setting [6]) is on record as 2,1 µL. The solubility at 1 min in series [1] was 1.5 ± 0.2 µM (≈ 0.752 µg/mL). In addition, the IC50 in series [2] is 34 ± 6 µM. In addition, the CC50 in series [3] amounted to 71 ± 5 µM. Further, in series [4], the IC50 stood at 18 ± 5 µM and the “SI (selectivity index)” value was found to be 3.9.

Consider `Cc1ccc(Cn2c(C(=O)NCc3cccc(Cl)c3)cc(C(=O)c3ccc(C)cc3)c2C)cc1` [compound 9h, N-(3-chlorobenzyl)-5-methyl-4-(4-methylbenzoyl)-1-(4-methylbenzyl)-1H-pyrrole-2-carboxamide], for which the “Volume of DMSO solution added to PBS” value in series [1] (setting [6]) is 0.84 µL. Further, in series [1], the solubility at 1 min is less than 1 µM. Besides, the IC50 in series [2] amounted to 56.3 ± 15 µM. In series [3], the CC50 stood at 42 ± 7 µM. Besides, in series [4], the IC50 is 24 ± 6 µM and the “SI (selectivity index)” value came out at 1.7.

Turning to `COc1ccc(C(=O)c2cc(C(=O)NCc3cccc(Cl)c3)n(Cc3ccc(C)cc3)c2C)cc1` [compound 9i, N-(3-chlorobenzyl)-4-(4-methoxybenzoyl)-5-methyl-1-(4-methylbenzyl)-1H-pyrrole-2-carboxamide], in series [1] (setting [6]), the “Volume of DMSO solution added to PBS” value is given as 1,0 µL. Moreover, the solubility at 1 min in series [1] is less than 1 µM. For the same compound, in series [2], the concentration for half-maximal inhibition (IC50) is more than 100 µM. Moreover, the CC50 in series [3] amounted to 66 ± 5 µM. Further, in series [4], the IC50 came out at 16 ± 6 µM and the “SI (selectivity index)” value is 4.2.

`COc1ccc(C2=N[C@H](c3ccc(Cl)cc3)[C@H](c3ccc(Cl)cc3)N2C(=O)N2CCNC(=O)C2)c(OC(C)C)c1` [nutlin-3a, reference compound]: the solubility at 1 min in series [1] worked out at 2.4 ± 0.2 µM (≈ 1.4 µg/mL). The IC50 in series [2] is 12.5 ± 5 µM. In series [3], the CC50 is 18 ± 4 µM. In addition, in series [4], the 50% inhibitory concentration (IC50) amounted to 15 ± 3 µM and the “SI (selectivity index)” value amounted to 1.2.
